In patent US20210137809A1, “COSMETIC COMPOSITION FOR WRINKLE REDUCTION OR ANTI-INFLAMMATION, CONTAINING SUBSTANCE P” (Biosolution Co., Ltd, priority 2017, published 2021):

Assays:
[1] = system: collagen synthesis in Human skin fibroblasts; test: Collagen synthesis effect in skin fibroblasts (Procollagen Type1-Peptide EIA); type: cell-based; settings: 24-hr culture, maximum increase (up to) relative to PBS control, FIG. 3
Experimental: (§1) The collagen synthesis effect of the composition containing substance P was examined in skin fibroblasts. Human skin fibroblasts were put in a 96-well plate at a density of 3×10^4 CFU/well, and incubated at 37° C. for 24 hours. The medium (FGM, Lonza, USA) was removed, and then 180 μL of a fresh medium was dispensed into each well, and 20 μL of the composition containing substance P or substance P dissolved in a phosphate buffer solution (PBS) was added thereto, followed by incubation at 37° C. for 24 hours. In this regard, the concentration of the composition or the substance P added was determined such that its final concentration became a desired concentration, taking into consideration the total volume of the medium. After 24-hr culture, the supernatant was collected, and the amount of collagen in the medium was measured using a Procollagen Type1-Peptide (PIP) EIA kit (TaKaRa, Japan).
The difference was statistically significant. Statistical analysis was performed using Student's t-test, and the effects of experimental groups (*p<0.05, **p<0.01) relative to the control (phosphate buffer solution-treated group) and the effects of substance P dissolved in phosphate buffer solution and the composition of the present invention (#p<0.05, ##<0.01) were compared.

[2] = system: inflammatory cytokine IL-6; test: Inflammatory cytokine IL-6-reducing effect in LPS-treated Raw 264.7 cells; type: cell-based, mouse; settings: 100 ng/mL LPS, 24-hr culture, maximum decrease (up to) relative to LPS-treated group, FIG. 5
Experimental: The inflammatory cytokine IL-6-reducing effect of the composition including substance P was examined in Raw 264.7 cells which are mouse macrophages. […] were put in a 24-well plate at a density of 4×10^5 CFU/well, and incubated at 37° C. for 24 hours. A growth medium for Raw 264.7 cells was prepared by mixing DMEM (Welgene, Korea) with 200 mM of L-glutamine (Gibco, USA). After 24-hr culture, the medium was removed, and then 1 mL of a fresh medium was dispensed into each well. To induce intracellular inflammation, 100 ng/mL of LPS (Sigma, USA) was treated thereto, and simultaneously, the composition including substance P or substance P dissolved in a phosphate buffer solution (PBS) was dispensed thereto such that the final volume was 2 mL/well, followed by incubation at 37° C. for 24 hours. In this regard, the concentration of the composition or the substance P added was determined such that its final concentration became a desired concentration, taking into consideration the total volume of the medium. After 24-hr culture, the supernatant was collected, and the amount of inflammatory cytokine IL-6 in the medium was measured by mouse IL-6 immunoassay (R&D systems, USA).
Significant IL-6 reduction was determined using Student's t-test by comparing the IL-6 amount practically measured in the experimental group with that of the LPS-treated group (*p<0.05, **p<0.01).

collagenase (MMP-1) = test: Collagenase (MMP-1) inhibition effect in skin fibroblasts (Human total MMP-1 kit); type: cell-based; settings: 24-hr culture, maximum decrease (up to) relative to PBS control, FIG. 4
Experimental: as §1, with “collagenase (MMP-1) inhibition” for “collagen synthesis”, “including” for “containing”, “collagenase (MMP-1)” for “collagen”, “Human total MMP-1” for “Procollagen Type1-Peptide (PIP) EIA”, “(R&D systems, USA).” for “(TaKaRa, Japan).”
The difference was statistically significant. Statistical analysis was performed using Student's t-test, and the MMP-1 production of each experimental group (*p<0.05, **p<0.01) relative to the control (phosphate buffer solution-treated group) and the MMP-1 productions by substance P dissolved in phosphate buffer solution and the composition of the present invention (#p<0.05, ##p<0.01) were compared.

nitric oxide (NO) = test: Nitric oxide (NO)-reducing effect in LPS-treated Raw 264.7 cells (Griess reagent); type: cell-based, mouse; settings: 100 ng/mL LPS, 24-hr culture, maximum decrease (up to), LPS only = 100%, FIG. 6
Experimental: In inflammatory environments, the nitric oxide (NO)-reducing effect of the composition including substance P was examined in Raw 264.7 cells which are mouse macrophages. […] were put in a 24-well plate at a density of 4×10^5 CFU/well, and incubated at 37° C. for 24 hours. A growth medium for Raw 264.7 cells was prepared by mixing DMEM (Welgene, Korea) with 200 mM of L-glutamine (Gibco, USA). After 24-hr culture, the medium was removed, and then 1 mL of a fresh medium was dispensed into each well. […] In this regard, the concentration of the composition or the substance P added was determined such that its final concentration became a desired concentration, taking into consideration the total volume of the medium.
After 24-hr culture, the supernatant was collected, and 100 μL thereof was added to a 96-well plate, and an equal volume of Griess reagent (Sigma, USA) was added thereto, and the plate was left at room temperature for 15 minutes. Then, absorbance at 540 nm was measured. […] The production amount of nitric oxide (NO) in the group treated with LPS only was regarded as 100%, and the amount of nitric oxide (NO) in the medium was determined.
Significant NO reduction was determined using Student's t-test by comparing the NO amount practically measured in the experimental group with that of the LPS-treated group (*p<0.05, **p<0.01).

- collagenase (MMP-1) production decrease (collagenase (MMP-1)): about 20%
Substance: Arg-Pro-Lys-Pro-Gln-Gln-Phe-Phe-Gly-Leu-Met-NH2 [substance P]
- collagen synthesis increase [1]: about 20%
- decrease of amount of IL-6 induced by LPS [2]: about 20%
- decrease of amount of NO induced by LPS (nitric oxide (NO)): about 10%
